Measurements as given in PubChem BioAssay (NCI).
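Test compounds were applied to cells in 96-well plates for 48 hours at 5 doses. GI50 marks 50% less growth. TGI marks complete inhibition of growth.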

Experiments:
Assay in all cases: NCI-60 cell line screen, 48 h
ACHN renal = system: ACHN renal
NCI-H522 lung = system: NCI-H522 lung
CCRF-CEM leukemia = system: CCRF-CEM leukemia
DU-145 prostate = system: DU-145 prostate
OVCAR-8 ovarian = system: OVCAR-8 ovarian
MALME-3M melanoma = system: MALME-3M melanoma
SNB-75 CNS = system: SNB-75 CNS
U251 CNS = system: U251 CNS
MDA-MB-435 = system: MDA-MB-435
OVCAR-5 ovarian = system: OVCAR-5 ovarian

Row | SMILES | GI50 (ACHN renal) | TGI (ACHN renal) | GI50 (NCI-H522 lung) | TGI (NCI-H522 lung) | GI50 (CCRF-CEM leukemia) | TGI (CCRF-CEM leukemia) | GI50 (DU-145 prostate) | TGI (DU-145 prostate) | GI50 (OVCAR-8 ovarian) | TGI (OVCAR-8 ovarian) | GI50 (MALME-3M melanoma) | TGI (MALME-3M melanoma) | GI50 (SNB-75 CNS) | TGI (SNB-75 CNS) | GI50 (U251 CNS) | TGI (U251 CNS) | GI50 (MDA-MB-435) | TGI (MDA-MB-435) | GI50 (OVCAR-5 ovarian) | TGI (OVCAR-5 ovarian)
1 | NC(CS/C(Cl)=C/Cl)C(=O)O (configuration not stated) | 78.9 µM | > 100 µM | > 55.6 µM | > 100 µM | 20.3 µM | > 100 µM | 16.5 µM | > 100 µM | 24.1 µM | > 100 µM | 62.4 µM | > 100 µM | > 75.9 µM | > 100 µM | > 61 µM | > 100 µM | 9.25 µM | 31.5 µM | > 100 µM | > 100 µM
2 | COc1ccc(C(=O)COc2cccc(/C=C3\Oc4ccc5ccccc5c4C3=O)c2)cc1 | 15.2 µM | 29 µM | 1.46 µM | 3.29 µM | 0.327 µM | 1.44 µM | 4.19 µM | 16 µM | 4.57 µM | 14.9 µM | 1.74 µM | 5.51 µM | 12.3 µM | 29 µM | 6.42 µM | 19.6 µM | 5.24 µM | 20 µM | 12.7 µM | 25.3 µM
3 | C=CCSS/C=C/CS(=O)CC=C (configuration not stated) | – | > 100 µM | – | 32.3 µM | – | > 100 µM | – | > 100 µM | – | 37.1 µM | – | > 100 µM | – | > 100 µM | – | > 100 µM | – | 37.3 µM | – | 98.8 µM
4 | Cn1cc(C2=C(c3cn(CCCCCN)c4ccccc34)C(=O)NC2=O)c2ccccc21 | 10.9 µM | > 25 µM | 15.5 µM | > 25 µM | 5.58 µM | > 20.6 µM | 13.8 µM | > 25 µM | 11 µM | > 25 µM | 18.4 µM | > 25 µM | 1.08 µM | > 25 µM | 10.8 µM | > 25 µM | 2.4 µM | > 25 µM | > 25 µM | > 25 µM
5 | COc1ccc2[nH]c3c4c(ccc3c2c1)C(=O)C=CC4=O | – | 15 µM | – | 3.66 µM | – | 6.55 µM | – | > 100 µM | – | 12.4 µM | – | 17.4 µM | – | 41.3 µM | – | 36.5 µM | – | 66.5 µM | – | 41.5 µM
6 | O=C(Nc1ccc(CO)cc1)c1coc2ccccc2c1=O | > 100 µM | > 100 µM | > 100 µM | > 100 µM | > 100 µM | > 100 µM | > 100 µM | > 100 µM | > 100 µM | > 100 µM | > 100 µM | > 100 µM | > 100 µM | > 100 µM | > 100 µM | > 100 µM | > 100 µM | > 100 µM | > 100 µM | > 100 µM
7 | COCCOc1cnc2ccn([C@H](C)c3nnc4c(F)cc(-c5cnn(C)c5)cn34)c(=O)c2c1 | > 100 µM | > 100 µM | > 100 µM | > 100 µM | > 100 µM | > 100 µM | > 100 µM | > 100 µM | > 100 µM | > 100 µM | > 100 µM | > 100 µM | 34.9 µM | > 100 µM | > 100 µM | > 100 µM | > 100 µM | > 100 µM | > 100 µM | > 100 µM
8 | CC(=O)O[C@H](C[C@H](C(C)C)N(C)C(=O)[C@@H](NC(=O)[C@H]1CCCCN1C)C(C)C)c1nc(C(=O)N[C@@H](Cc2ccccc2)C[C@H](C)C(=O)O)c(CCOCc2ccccc2)s1 | 0.00105 µM | > 10 µM | < 0.001 µM | < 0.001 µM | < 0.001 µM | > 10 µM | < 0.001 µM | 0.00119 µM | < 0.001 µM | > 10 µM | < 0.001 µM | > 10 µM | < 0.001 µM | 5.67 µM | < 0.001 µM | – | < 0.001 µM | < 0.001 µM | < 0.001 µM | > 10 µM
9 | CCn1c(CO)nn(-c2cc(O[C@@H](C)C(F)(F)F)c(C(=O)Nc3c(F)cccc3Cl)cc2F)c1=O | < 0.0122 µM | > 100 µM | < 0.01 µM | > 100 µM | < 0.01 µM | > 100 µM | < 0.0192 µM | > 100 µM | < 0.01 µM | > 100 µM | > 32.2 µM | > 100 µM | – | > 100 µM | < 0.01 µM | > 100 µM | < 0.0176 µM | > 100 µM | > 100 µM | > 100 µM
10 | [Au+].[Au+].[Au+].[c-]1nccn1Cc1ccccc1.[c-]1nccn1Cc1ccccc1.[c-]1nccn1Cc1ccccc1 | 14.3 µM | 28.6 µM | 1.58 µM | 2.95 µM | 3.71 µM | > 25.5 µM | 17.7 µM | 32.4 µM | 5.06 µM | > 42.6 µM | 3.35 µM | 7.08 µM | 6.08 µM | 18.9 µM | 9.03 µM | – | 11.4 µM | 34.2 µM | 27.8 µM | 61.9 µM
11 | CC(C)OC(=O)NNc1cc(Cl)ccc1Cl | – | > 100 µM | – | > 100 µM | – | > 100 µM | – | > 100 µM | – | > 100 µM | – | > 100 µM | – | > 100 µM | – | > 100 µM | – | > 100 µM | – | > 100 µM
12 | C[C@]12CC[C@@H]3c4ccc(O)cc4CC[C@H]3[C@@H]1CC[C@@H]2NS(=O)(=O)c1cccc(F)c1 | 2.71 µM | 8.66 µM | 1.89 µM | 7.6 µM | 3.28 µM | 18.6 µM | 5.45 µM | 17.9 µM | 3.84 µM | 15.8 µM | 2.52 µM | 7.76 µM | 2.93 µM | 15 µM | 3.23 µM | 12.1 µM | 2.58 µM | 8.77 µM | 4.35 µM | 16.3 µM
13 | CCC(C)(C)c1ccc(OCCCCCCN2CCNCC2)cc1 | 2.19 µM | 5.45 µM | 2.23 µM | 5.67 µM | 1.43 µM | 4.64 µM | 2.39 µM | 6.06 µM | 2.45 µM | 5.3 µM | 1.94 µM | 3.6 µM | 1.46 µM | 3.51 µM | 1.68 µM | 3.45 µM | 1.54 µM | 3.09 µM | 2.11 µM | 5.39 µM
14 | COc1ccc2c(c1)C(C)Cc1c(ncnc1-n1c(C)nc3ccccc31)N2C (configuration not stated) | 6.56 µM | 23.1 µM | 1.96 µM | 5.38 µM | 2.85 µM | 16.4 µM | 3.27 µM | 13.4 µM | 4.83 µM | 40.1 µM | 11.3 µM | 25.2 µM | 2.41 µM | 11.1 µM | 4.51 µM | 17.7 µM | 0.315 µM | 1.89 µM | 13 µM | 39.8 µM
15 | O=[N+]([O-])c1ccc2c(c1)C(c1ccccc1Cl)=Nc1cn[nH]c1N2 | 14.4 µM | > 25 µM | 15.5 µM | > 25 µM | 8 µM | > 25 µM | 20.4 µM | > 25 µM | 17.9 µM | > 25 µM | > 25 µM | > 25 µM | 0.618 µM | > 21.2 µM | 9.91 µM | > 25 µM | 15.1 µM | > 25 µM | > 25 µM | > 25 µM
16 | Nc1nc(SN=Nc2ccc(S(N)(=O)=O)cc2)c2[nH]cnc2n1 | 1.6 µM | > 100 µM | 1.08 µM | 43.1 µM | 0.268 µM | > 100 µM | 0.469 µM | > 94.8 µM | 0.419 µM | > 100 µM | 1.87 µM | > 60.6 µM | 0.354 µM | > 21.7 µM | 2.66 µM | > 100 µM | 0.39 µM | > 100 µM | 0.629 µM | > 100 µM
17 | O=C(/C=C/c1cc(CN2CCOCC2)c(O)c2ncccc12)c1cc(CN2CCOCC2)c(O)c2ncccc12 | 0.0329 µM | > 100 µM | 0.0208 µM | > 53.7 µM | 0.05 µM | > 100 µM | < 0.0219 µM | > 100 µM | 0.0359 µM | > 100 µM | 0.145 µM | > 100 µM | 0.0595 µM | 42.6 µM | < 0.0172 µM | 4.95 µM | < 0.0211 µM | > 100 µM | 0.0585 µM | > 100 µM
18 | CC(C)CNC(=O)O | – | > 100 µM | – | > 100 µM | – | > 100 µM | – | > 100 µM | – | > 100 µM | – | > 100 µM | – | > 100 µM | – | > 100 µM | – | > 100 µM | – | > 100 µM
19 | C=C1C(=O)O[C@H]2[C@H]1CC/C(COC(=O)c1ccc(Cl)nc1)=C\CC[C@@]1(C)O[C@@H]21 | 1.68 µM | 3.6 µM | 1.59 µM | 3.82 µM | 1.22 µM | 6.9 µM | 1.75 µM | 4.01 µM | 3.26 µM | 12.7 µM | 2.12 µM | 4.19 µM | 12.4 µM | 31.6 µM | 4.85 µM | 15.9 µM | 2.14 µM | 6.81 µM | 2.95 µM | 9.4 µM
